Laboratory results published in ChEMBL document CHEMBL2331401, “Orally active fumagillin analogues: transformations of a reactive warhead in the gastric environment” (ACS Med Chem Lett, 2013).
Activity calls are given as the source filed them. No cut-off for these calls is given here.

Experiments:
Rattus norvegicus [1] = test: Inhibition of MetAP2 in Sprague-Dawley rat assessed as free MetAP2 level in whole blood at 3 mg/kg, po after 2 to 4 hrs by ELISA relative to vehicle-treated control; type: functional, organism-based; design: dose 3 mg/kg
Rattus norvegicus [2] = test: Inhibition of MetAP2 in Sprague-Dawley rat assessed as free MetAP2 level in thymus at 3 mg/kg, po after 24 hrs by ELISA relative to vehicle-treated control; type: functional, organism-based; design: dose 3 mg/kg
Rattus norvegicus [3] = test: Inhibition of MetAP2 in Sprague-Dawley rat assessed as free MetAP2 level in liver at 3 mg/kg, po after 24 hrs by ELISA relative to vehicle-treated control; type: functional, organism-based; design: dose 3 mg/kg
Plasma = test: Drug metabolism in rat plasma assessed as PPI-2458 formation at 4 degC after 1 hr by HPLC/MS/MS analysis; type: ADME, cell-free
[4] = Stability of the compound in MES buffer at pH 6.5 after 8 hrs by LC-MS analysis; type: physicochemical; details: pH 6.5, 8 h
[5] = target: Methionine aminopeptidase 2 (Homo sapiens) (UniProt P50579); test: Inhibition of MetAP2 (unknown origin) using Met-AMC as substrate in MES buffer at pH 6.5 at 200 nM after 8 hrs
[6] = target: Methionine aminopeptidase 2 (Homo sapiens) (UniProt P50579); test: Inhibition of MetAP2 (unknown origin) using Met-AMC as substrate in HEPES buffer at pH 7.5 at 200 nM after 8 hrs
HUVEC = test: Antiproliferative activity against human HUVEC cells after 3 days; type: functional, cell-based; details: 72 h
[7] = target: Methionine aminopeptidase 2 (Homo sapiens) (UniProt P50579); test: Inhibition of MetAP2 (unknown origin) using Met-AMC as substrate assessed as residual activity at 200 nM after 8 hrs

Chain of Methionine aminopeptidase 2 (Homo sapiens) (P50579 2-478 limits assumed): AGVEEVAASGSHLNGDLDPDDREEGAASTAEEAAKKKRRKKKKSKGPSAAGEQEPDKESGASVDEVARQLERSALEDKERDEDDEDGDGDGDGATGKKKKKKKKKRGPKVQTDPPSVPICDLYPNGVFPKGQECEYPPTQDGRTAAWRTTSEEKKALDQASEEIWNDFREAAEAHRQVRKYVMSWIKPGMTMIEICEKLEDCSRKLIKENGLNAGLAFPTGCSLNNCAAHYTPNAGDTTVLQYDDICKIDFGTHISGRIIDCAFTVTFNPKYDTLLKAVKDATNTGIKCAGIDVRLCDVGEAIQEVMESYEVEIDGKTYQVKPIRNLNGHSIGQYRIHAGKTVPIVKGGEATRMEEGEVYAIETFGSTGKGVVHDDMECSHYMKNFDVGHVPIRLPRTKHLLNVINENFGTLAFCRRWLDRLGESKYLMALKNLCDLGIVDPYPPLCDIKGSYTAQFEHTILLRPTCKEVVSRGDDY

Row | Structure (SMILES) | inhibition (Rattus norvegicus [1]) | inhibition (Rattus norvegicus [2]) | inhibition (Rattus norvegicus [3]) | Stability (Plasma) | Stability [4] | inhibition [5] | inhibition [6] | IC50 (HUVEC) | Activity [7]
1 | CO[C@@H]1[C@H](OC(=O)N[C@@H](C(N)=O)C(C)C)CC[C@](O)(CCl)[C@H]1[C@@]1(C)O[C@@H]1CC=C(C)C | Active | Active | Active | Unstable | Stable | inactive | Active | 0.15 nM | 6%
2 | CO[C@@H]1[C@H](OC(=O)N[C@@H](C(N)=O)C(C)C)CC[C@]2(O)CO[C@](C)([C@H](O)CC=C(C)C)[C@@H]12 | inactive | inactive | inactive | – | – | – | – | > 30000 nM | 107%
3 | C=C([C@H](O)CC=C(C)C)[C@H]1[C@H](OC)[C@H](OC(=O)N[C@@H](C(N)=O)C(C)C)CC[C@]12CO2 | Active | Active | Active | – | – | – | – | 3.1 nM | 27%
4 | C=C([C@H](O)CC=C(C)C)[C@H]1[C@H](OC)[C@H](OC(=O)N[C@@H](C(N)=O)C(C)C)CC[C@]1(O)CCl | Active | Active | Active | – | – | – | – | 3.3 nM | 58%
5 | CO[C@H]1[C@@H]([C@@]2(C)O[C@@H]2CC=C(C)C)[C@]2(CC[C@H]1OC(=O)N[C@@H](C(N)=O)C(C)C)CO2 | Active | Active | Active | – | – | Active | Active | 0.18 nM | 3%
6 | CO[C@@H]1[C@H](OC(=O)N[C@@H](C(N)=O)C(C)C)CC[C@@]2(O)CO[C@](C)([C@H](O)CC=C(C)C)[C@@H]12 | inactive | inactive | inactive | – | – | – | – | > 30000 nM | 105%
